How the values were obtained:
[1] = target: T1, FLAG-MOR (mu opioid receptor) (Mus musculus, UniProt P42866); assay: MOR endocytosis by antibody feeding and immunocytochemistry in HEK 293 cells; format: cell-based
T1 construct: expressed in transfected cells
Experimental: (§1) Cell culture and immunocytochemistry. Human Embryonic Kidney (HEK) 293 cells (American Type Culture Collection) were grown in DMEM (Gibco BRL) supplemented with 10% Fetal Bovine Serum (Hyclone). Mu opioid receptor and CRE-Luciferase (Promega) constructs were stably transfected using calcium phosphate co-precipitation, with single colonies chosen and propagated in the presence of selection-containing media. For immunocytochemistry, cells were grown on poly-lysine coated coverslips and incubated with 3.5 μg/ml M1 anti-FLAG and/or 3.5 μg/ml HA-11 antibody (Covance) for 30 minutes. Cells were then treated with agonist as specified, fixed in 4% formaldehyde in PBS, permeabilized in 0.1% Triton X-100 in blotto, and stained. Cells stained for only one receptor type were stained with Texas red-conjugated Donkey anti-Mouse antibody (Jackson Immunoresearch). Cells that were stained for both FLAG and HA tagged receptors simultaneously were first incubated with rabbit anti-IgG2b antibodies (Zymed) followed by staining with Texas red Donkey anti Mouse antibody (Jackson Immunoresearch) and FITC-conjugated Goat anti Mouse IgG1, antibody (Boehringer). Images were acquired using a custom-configured inverted microscope (Prairie Systems, Madison, Wis.) with a Zeiss 63× oil objective, or a Zeiss confocal with a 60× oil objective.
We next assessed whether the heterodimerization of MOR and D MOR could affect the trafficking of the receptors using immunocytochemical methods. […] Control cell lines that expressed only one of the receptors, either FLAG-MOR or HA-D MOR, were treated analogously. All cells were then permeabilized and stained with fluorescently conjugated secondary antibodies. In this way, only receptors that were initially on the cell surface were detected.
HEK 293 cells were generated that stably expressed both the FLAG-tagged MOR and an HA-tagged B2AR. The cells were incubated with antibodies to both epitope tags to label cell surface receptors, treated with various agonists or agonists combinations, then stained for both receptors. […] All treatments were for 30 minutes with 5 μM each agonist.

[2] = target: T2, HA-B2AR (beta-2 adrenergic receptor) (Homo sapiens, UniProt P07550); assay: B2AR endocytosis in HEK 293 cells expressing FLAG-MOR and HA-B2AR; format: cell-based; conditions: 5 μM each agonist, 30 minutes
T2 construct: expressed in transfected cells
T2 sequence (P07550 whole entry, species assumed): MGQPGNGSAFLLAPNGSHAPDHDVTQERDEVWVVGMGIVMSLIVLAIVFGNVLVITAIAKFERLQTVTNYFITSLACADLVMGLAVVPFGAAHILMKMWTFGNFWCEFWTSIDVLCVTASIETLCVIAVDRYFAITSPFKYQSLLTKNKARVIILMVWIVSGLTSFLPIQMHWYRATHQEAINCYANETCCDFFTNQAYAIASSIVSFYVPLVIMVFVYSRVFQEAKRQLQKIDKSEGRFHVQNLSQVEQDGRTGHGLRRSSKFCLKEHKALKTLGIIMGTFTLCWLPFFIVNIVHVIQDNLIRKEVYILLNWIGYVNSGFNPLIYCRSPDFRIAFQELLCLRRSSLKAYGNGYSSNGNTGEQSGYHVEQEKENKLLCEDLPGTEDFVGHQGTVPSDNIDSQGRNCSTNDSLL
Experimental: as §1, with “objective. […]” for “objective.”

[3] = Radiant heat tail-flick antinociception, intrathecal (IT) catheter; format: in vivo, rat
Description: Animals. Male Sprague-Dawley rats (250-300 g, Simonsen Laboratories, Inc. Gilroy, Calif.) were housed individually in temperature-controlled rooms with a 12-hr light/dark cycle. Food and water were available ad libitum. All procedures used in this study were in agreement with the NIH Guide for the Care and Use of Laboratory Animals and were approved by the Animal Care and Use Committee at Gallo Center of the University of California, San Francisco.
Preparation and implantation of intrathecal (IT) catheters. […] Two types of catheters were prepared depending on the regimen for test drug delivery. […] For catheter implantation, rats were anesthetized with isoflurane and placed on a stereotaxic device with the head flexed forward. The PE-10 catheter was inserted into the spinal subarachnoid space through an incision in the atlanto-occipital membrane and advanced caudally extending to the lumbar enlargement of the spinal cord. After implantation of IT catheters, rats were returned to their home cages and allowed 7 days to recover from surgery.
Drug treatments. […] The test drug was delivered via either single injection or chronic infusion. […] DAMGO or saline was injected through one arm of the Y-shape catheter at 15 μl volume.
Antinociception test. Rats were tested for antinociception using the radiant heat tail-flick procedure. The light intensity was adjusted to achieve base-line latencies of 1.5 to 2 seconds; a maximum latency of 6 seconds was set as the cut-off time to minimize damage to the tail. […] Antinociception was tested by tail-flick 30 min after the afternoon administration. The behavioral data of antinociception were compared and statistically analyzed by two-way analysis of variance followed by Bonferroni post-test, where P<0.05 was considered significant.
(§2) Rats (4-6 per group) were implanted with an intrathecal catheter through which either an acute injection of agonist could be given or chronic drug could be administered by an osmotic mini pump.
Rats were implanted with a Y-shaped intrathecal catheter. […] Either a sub-analgesic, sub-endocytic dose of DAMGO (0.01 nmoles in 15 μl) or an equal volume of saline was administered twice daily through the other arm of the catheter. […] Analgesia was measured by tail flick latency test once per day 30 minutes following the second injection.

[4] = target: T3, MORs in the lamina II neurons of the spinal cord (Rattus norvegicus, UniProt P33535); assay: Immunohistochemical staining of MORs in lamina II spinal cord neurons after IT drug; format: in vivo
T3 construct: from tissue; host or cells: spinal cord (lamina II, dorsal horn) of male Sprague-Dawley rats dosed intrathecally
T3 sequence (P33535 whole entry): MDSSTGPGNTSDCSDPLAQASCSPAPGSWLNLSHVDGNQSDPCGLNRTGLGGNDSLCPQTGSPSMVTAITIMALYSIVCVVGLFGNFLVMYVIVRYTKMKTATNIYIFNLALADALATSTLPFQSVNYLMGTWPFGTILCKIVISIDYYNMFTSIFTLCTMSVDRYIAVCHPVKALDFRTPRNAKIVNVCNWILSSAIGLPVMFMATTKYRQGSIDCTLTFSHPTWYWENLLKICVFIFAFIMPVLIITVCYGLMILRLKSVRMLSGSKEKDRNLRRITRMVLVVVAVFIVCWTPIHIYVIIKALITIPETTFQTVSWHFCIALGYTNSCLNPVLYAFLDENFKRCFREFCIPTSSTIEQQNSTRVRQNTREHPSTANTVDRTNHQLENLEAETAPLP
Experimental: Immunohistochemistry. The rats were anesthetized with intramuscular ketamine hydrochloride (80 mg/kg) and xylazine hydrochloride (12 mg/kg) and perfused with 4% paraformaldehyde in 0.1 M phosphate buffer immediately following the tail-flick test at day 7 following pump implantation. The segment of spinal cord proximal to the tip of the catheter was dissected out, post-fixed overnight in the same fixative and then transferred to a 30% sucrose buffer solution. […] The sections were then washed and mounted on slides. MOR distribution was examined with a Zeiss confocal microscope using a 60× oil immersion objective. For quantification, slides from at least two different rats for each condition were stained by one researcher and encoded and vesicles were counted blind by a second individual from the middle section of at least 8 cells per condition. Following compilation of vesicle counts, the code was broken.
as §2
A very low dose of DAMGO was chosen to avoid confusion due to DAMGO-induced endocytosis.
To examine this possibility, we examined the distribution of the MORs in the spinal cord of the rats from the behavioral experiment.

[5] = Tail-flick antinociception and tolerance, intracerebroventricular (i.c.v.) cannula; format: in vivo, rat
Description: Intracerebroventricular (i.c.v.) cannula implantation. Rats were anesthetized with halothane and placed in a stereotaxic head holder. The scalp was shaved and scrubbed with alcohol. A midline sagittal incision was made, and the skull was exposed. The bone suture junctions Bregma and midline (lambda) were identified, then the location for cannula placement was marked 1 mm posterior to Bregma and 1.5 mm lateral (left) of the midline. A hole was drilled through the skull at the marked location to receive the cannula. Then, three additional holes were drilled around the first hole: anterior, lateral and posterior to the first hole, respectively, and about 3-4 mm apart from the first hole. These three holes were drilled partway through the skull to accommodate three small screws used to secure the cannula. An L-shaped cannula was inserted through the first hole in the skull to the stereotaxically correct depth 3.6 mm below the surface of the skull. The skull surface was completely dried, and the cannula and the implantation site covered with dental cement. Once the surgical procedures were done, the rat was removed from the stereotaxic device and returned to its cage and allowed 5 to 7 days to recover from surgery.
Implantation of osmotic mini-pump. After 5 to 7 days of recovery, a subcutaneous pocket in the midscapular area of the back of each rat, next to the implanted cannula (caudally), was created under light anesthesia with halothane to house the osmotic mini-pump. The subcutaneous pocket was created by first making a small incision, inserting a hemostat into the incision, and then opening and closing the hemostat to make a short subcutaneous tunnel. […] The wound was closed with sutures and the rat was returned to its cage.
Rats were tested for analgesia using the tail-flick latency test twice during the study period. The tests were conducted 30 min after the morning dose on days 1 and 5. Maximum Possible Effect (MPE) was calculated using the following equation: (Post-drug latency—baseline latency)/(cut-off latency—baseline latency)×100%.

[6] = Naloxone-precipitated withdrawal after i.c.v. treatment (jumping, shaking, chewing, weight loss); conditions: naloxone 3 mg/kg i.p.; for withdrawal symptoms after naloxone (jumping, shaking, chewing, weight loss): i.c.v. twice daily for 5 days, morphine 50 nmoles, DAMGO 1.0 nmole; for withdrawal behaviours after naloxone: 20-min period
Experimental: (§3) On day 7, rats were injected intraperitoneally with 3 mg/kg naloxone and placed, individually, in Plexiglass cylinders. The rats were monitored for jumping, shaking, and chewing, and the number of occurrences of each type of behavior over a 20-min period was recorded immediately following the naloxone injection. In addition, the rats were weighed before naloxone injection and after the 20 mins of monitoring indicated above.
as §3, with “5, 30 mins following the second drug administration,” for “7,”, “following” for “after”, “20-min observation period” for “20 mins of monitoring”

MOR-G protein coupling = target: T4, MOR-G protein coupling (Rattus norvegicus, UniProt P33535); assay: [35S]-GTPγS binding autoradiography of brain sections (MOR-G protein coupling) after chronic treatment; format: in vivo; conditions: chronic DAMGO treatment as printed; brainstem P<0.001, thalamus P<0.05
T4 construct: from tissue; host or cells: brain sections of male Sprague-Dawley rats treated i.c.v
T4 sequence (P33535 whole entry): as above
Experimental: The binding assay was carried out as follows:
Slides containing brain sections were pre-incubated in buffer (50 mM Tris, 3 mM MgCl2, 0.2 mM EGTA, 100 mM NaCl, pH 7.4) for 10 min at room temperature.
The slides were then pre-incubated in the same buffer containing 2 mM GDP for 10 min at room temperature.
The slides were incubated in the same buffer as in step 2, additionally containing 50 pM [^35S]GTPγS for 90 min at room temperature.
The slides were then rinsed twice for 2-5 min in ice-cold buffer (the same buffer as in step 1) and dipped in cold distilled water.
The slides were thoroughly dried overnight, placed in X-ray cassettes, and exposed to BioMax MS™ film with an intensifying screen for 72 hr.
After exposure, the films were developed and scanned. The regional neuroanatomy of the rat was determined with the atlas of Paxinos and Watson, and brain areas in autoradiograms were quantitated using NIH Image software. Percent stimulation was calculated from optical densities (OD) according to the following equation:
Percent stimulation=(stimulated OD−basal OD)/basal OD×100%.

mu-opioid receptor = target: T5, mu-opioid receptor (Rattus norvegicus, UniProt P33535); assay: MOR distribution in brain by immunohistochemistry after acute and chronic i.c.v. treatment; format: in vivo; conditions: i.c.v. acute or chronic (twice a day, 5 days); morphine 50 nmoles, DAMGO 1 nmole
T5 construct: from tissue; host or cells: brain sections of male Sprague-Dawley rats treated i.c.v
T5 sequence (P33535 whole entry): as above
Experimental: For the acute treatment, animals were sacrificed 30 mins following the first injection. For the chronic treatment, drugs were given twice a day: morning and afternoon, in 5 μl volume for 5 days, and the animals were sacrificed 30 mins following the final injection. Rats were deeply anesthetized with halothane and perfused with 4% paraformaldehyde in 0.1 M phosphate buffer. The brains were dissected out and post-fixed overnight in the same fixative and then transferred to a 30% sucrose buffer. Coronal sections (30 um thick) were cut on cryostat at −18° C., preincubated in PBT solution (0.1 M phosphate buffer, 2% BSA, and 0.2% Triton X-100) for 30 min, blocked in 5% normal goat serum in PBT solution for another 30 min, and then incubated with a rabbit anti-mu opioid receptor antibody at 1:5000 and mouse and NeuN antibody (which recognizes the neuronal-specific protein NeuN) at 1:5000 overnight at 4° C. […] The sections were then washed and mounted onto slides. The mu-opioid receptors and NeuN were visualized using a Zeiss confocal microscope with a 60× oil immersion objective.

wild type MOR = wild type MOR (Homo sapiens, UniProt P35372); conditions: cited from earlier work
Sequence of wild type MOR (P35372 whole entry): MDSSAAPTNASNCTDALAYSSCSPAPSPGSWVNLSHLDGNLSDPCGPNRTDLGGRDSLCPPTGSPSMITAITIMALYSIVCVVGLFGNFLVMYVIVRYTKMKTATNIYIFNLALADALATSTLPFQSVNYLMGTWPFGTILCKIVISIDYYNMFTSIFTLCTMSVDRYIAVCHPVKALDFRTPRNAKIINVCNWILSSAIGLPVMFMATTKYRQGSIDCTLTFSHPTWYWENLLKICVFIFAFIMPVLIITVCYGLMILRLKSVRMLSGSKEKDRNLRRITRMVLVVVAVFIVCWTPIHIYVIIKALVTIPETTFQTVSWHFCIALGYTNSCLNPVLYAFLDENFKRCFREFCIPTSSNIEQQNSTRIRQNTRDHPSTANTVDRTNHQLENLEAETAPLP

cAMP pathway = assay: CRE-luciferase reporter assay of cAMP superactivation in MOR-expressing HEK293 cells; conditions: chronic 14 hours
Experimental: CRE-luciferase reporter expression assays. Cells were grown to confluency in 24 well plates. […] For chronic treatment experiments cells were given drug for 14 hours, rinsed 3 times in drug-free media to initiate a withdrawal phase, then given 2 μM forskolin for the 4 hour withdrawal phase, and luciferase activity measured. […] For all treatment conditions, cells were rinsed once in PBS immediately prior to luciferase measurement. 100 μl Cell Culture Lysis Reagent (Promega) was added to each well, a 20 μl cell lysate aliquot was transferred to an opaque 96 well plate, 100 μl substrate added per well using a Lucy 2 luminometer (Anthos), and light measurements collected. Data were exported to Microsoft Excel for compilation, and GraphPad Prism 3.0 for graphical display, non-linear regression curve fitting, and subsequent statistical analyses.
P<0.01, two-way ANOVA, Tukey's post test.

[7] = HEK 293 cells expressing FLAG-MOR and HA-B2AR, 5 μM each agonist, 30 minutes
[8] = acute IT injection, 30 min after, DAMGO 0.3 nmoles, morphine 30 nmoles, p<0.001
[9] = chronic i.c.v. infusion at 25 or 75 nmoles/hr for 7 days

T1 sequence (P42866 whole entry): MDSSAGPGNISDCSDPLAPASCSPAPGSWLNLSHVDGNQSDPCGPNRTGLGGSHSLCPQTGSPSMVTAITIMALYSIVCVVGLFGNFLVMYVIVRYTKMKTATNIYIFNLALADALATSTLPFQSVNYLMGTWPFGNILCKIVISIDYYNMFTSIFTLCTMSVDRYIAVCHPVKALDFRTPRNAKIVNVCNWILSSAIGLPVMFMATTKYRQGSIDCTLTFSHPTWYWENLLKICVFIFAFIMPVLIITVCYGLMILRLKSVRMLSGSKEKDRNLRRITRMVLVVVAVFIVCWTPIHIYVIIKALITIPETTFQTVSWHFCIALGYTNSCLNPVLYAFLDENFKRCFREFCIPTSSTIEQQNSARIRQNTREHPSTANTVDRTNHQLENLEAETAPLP

Question: Which results are given for C[C@@H](NC(=O)[C@@H](N)Cc1ccc(O)cc1)C(=O)NCC(=O)N(C)[C@@H](Cc1ccccc1)C(=O)NCCO [DAMGO]?
Answer: MOR endocytosis [1, 7]: promoted endocytosis of the MOR; MOR endocytosis ([1]; HEK 293 cells expressing only MOR, 5 μM, 30 minutes (saturating dose)): robust endocytosis of receptor; MOR endocytosis ([1]; HEK 293 cells expressing only MOR, non-saturating DAMGO 100 nM alone): significantly less receptor endocytosis; B2AR endocytosis [2]: not B2AR; analgesia (tail flick latency) ([3]; 0.01 nmoles IT twice daily, saline from mini pump, 7 days): produced no analgesia; analgesia (tail flick latency) ([3]; acute IT injection, 30 min after, 0.01 nmoles, p>0.05): no analgesic effect; analgesia (tail flick latency) [3, 8]: produced significant analgesia; MOR endocytosis in lamina II neurons ([4]; acute IT, 0.01 nmoles alone): nor detectable MOR endocytosis; MOR distribution / endocytosis in lamina II neurons ([4]; acute IT, DAMGO 0.3 nmoles, equi-analgesic morphine 30 nmoles): pronounced receptor endocytosis; distribution of MORs in spinal cord neurons ([4]; day 7 of chronic IT treatment, morphine mini pump and/or DAMGO 0.01 nmoles twice daily): indistinguishable from animals given only saline; reduction in antinociception (percent MPE) after 5-day treatment ([5]; i.c.v. 1 nmole twice a day for 5 days, day 5 vs day 1): much smaller reduction in antinociception; withdrawal symptoms after naloxone (jumping, shaking, chewing, weight loss) [6]: no jumping and less shaking, chewing, and weight loss; MOR-G protein coupling in the brainstem and thalamus (MOR-G protein coupling): reduction MOR-G protein coupling; promotes substantial MOR endocytosis in brain (striatum, globus pallidus, ventral tegumental area) (mu-opioid receptor): does; MOR endocytosis (wild type MOR): promotes robust endocytosis of the MOR; superactivation of the cAMP pathway relative to untreated cells (cAMP pathway; 10 nM alone): little superactivation; superactivation of the cAMP pathway relative to untreated cells (cAMP pathway; 1 μM, 100 nM, 10 nM or 1 nM): superactivation in a dose dependent manner

Question: For CC(C)NCC(O)c1ccc(O)c(O)c1 (stereo not drawn) [isoproterenol], which MOR endocytosis [1, 7] is on record?
Answer: The MOR endocytosis was “not MOR”.

Question: Which “time to development of tolerance” value ([3]; Y-shaped IT catheter, chronic morphine mini pump plus twice daily saline injections) does the source give for CN1CC[C@]23c4c5ccc(O)c4O[C@H]2[C@@H](O)C=C[C@H]3[C@H]1C5 [morphine, (5α,6α)-7,8-didehydro-4,5-epoxy-17-methylmorphinan-3,6-diol] here?
Answer: The value was at most 4 days.

Question: And the “antinociception early in the experiment / day one” value ([3]; Y-shaped IT catheter, chronic morphine mini pump plus twice daily saline or DAMGO 0.01 nmoles)?
Answer: Its value is “pronounced antinociception early in the experiment”.

Question: And the “analgesia (tail flick latency)” value [3, 8]?
Answer: The value was “produced significant analgesia”.

Question: What about the “loss of antinociception (tolerance)” value ([3]; chronic IT infusion at 2, 6, or 18 nmoles/hr, 7 days) of the same compound?
Answer: The value was “eventually lost completely over 7 days”.

Question: And the “antinociceptive effect (tail flick latency)” value ([3]; chronic IT infusion at 2, 6, or 18 nmoles/hr, early days)?
Answer: Its value is “significant antinociceptive effect for the first few days”.

Question: What about the “duration of significant antinociceptive effect” value [5, 9] of the same compound?
Answer: The value was 3 to 4 days.

Question: And the tolerance [5, 9]?
Answer: The tolerance was “causes tolerance in a dose-dependent manner”.

Question: What about the “reduction in antinociceptive effect (percent MPE) after 5-day treatment” value ([5]; i.c.v. 50 nmoles twice a day for 5 days, day 5 vs day 1) of the same compound?
Answer: Its value is 30-40%.

Question: What about the “withdrawal behaviours after naloxone” value ([6]; i.c.v. 25 nmoles/hr for 7 days) of the same compound?
Answer: Its value is “increases in shaking and chewing”.

Question: And the “withdrawal behaviours after naloxone” value ([6]; i.c.v. 75 nmoles/hr for 7 days)?
Answer: Its value is “increases in jumping, shaking, and chewing”.

Question: What about the “weight loss after naloxone” value ([6]; i.c.v. 25 or 75 nmoles/hr for 7 days) of the same compound?
Answer: The value was “dose-dependent weight loss”.

Question: And the “withdrawal symptoms after naloxone (jumping, shaking, chewing, weight loss)” value [6]?
Answer: The value was “produced jumping, shaking, and chewing and weight loss”.

From patent US20040024005A1, “Methods and compositions for reducing the development of drug tolerance and/or physical dependence” (The Regents of the University of California, priority 2002, published 2004)
